Data from ChEMBL document CHEMBL1201862, “PubChem BioAssay data set” (2004).
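48-hour exposure; five concentrations; linearly interpolated endpoints. Here, GI50 denotes the concentration required for 50% inhibition of growth.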 Calls of active or inactive are those of the source. Cut-off read from the data, not from the text of the source: active = GI50 up to about 1.1 µM and inactive = higher.

Experiments:
Assay in all cases: growth of human tumour cells (NCI), 48 h
RXF 631 = tested on: RXF 631
SF-539 = tested on: SF-539
A549 = tested on: A549
M14 = tested on: M14
IGROV-1 = tested on: IGROV-1
U-251 = tested on: U-251
SF-295 = tested on: SF-295
OVCAR-3 = tested on: OVCAR-3
M19-MEL = tested on: M19-MEL
ACHN = tested on: ACHN
LXFL 529 = tested on: LXFL 529
SK-MEL-5 = tested on: SK-MEL-5
SNB-78 = tested on: SNB-78
RXF 393 = tested on: RXF 393
786-0 = tested on: 786-0
MOLT-4 = tested on: MOLT-4
TK-10 = tested on: TK-10
HT-29 = tested on: HT-29
SN12C = tested on: SN12C
OVCAR-4 = tested on: OVCAR-4
HOP-18 = tested on: HOP-18
K562 = tested on: K562
DMS-273 = tested on: DMS-273
NCI-H522 = tested on: NCI-H522
OVCAR-8 = tested on: OVCAR-8
SW-620 = tested on: SW-620
EKVX = tested on: EKVX
DLD-1 = tested on: DLD-1
HOP-62 = tested on: HOP-62
SK-MEL-28 = tested on: SK-MEL-28
A498 = tested on: A498
KM12 = tested on: KM12
HCT-116 = tested on: HCT-116
SK-MEL-2 = tested on: SK-MEL-2
KM-20L2 = tested on: KM-20L2
UACC-62 = tested on: UACC-62
UACC-257 = tested on: UACC-257
HCC 2998 = tested on: HCC 2998
COLO 205 = tested on: COLO 205
CAKI-1 = tested on: CAKI-1
HL-60 = tested on: HL-60
Malme-3M = tested on: Malme-3M
SF-268 = tested on: SF-268
SNB-19 = tested on: SNB-19
XF498 = tested on: XF498
NCI-H460 = tested on: NCI-H460
SK-OV-3 = tested on: SK-OV-3
NCI-H23 = tested on: NCI-H23
SNB-75 = tested on: SNB-75
CCRF-CEM = tested on: CCRF-CEM
DMS-114 = tested on: DMS-114
RPMI-8226 = tested on: RPMI-8226
UO-31 = tested on: UO-31
HCT-15 = tested on: HCT-15
OVCAR-5 = tested on: OVCAR-5
NCI-H226 = tested on: NCI-H226
HOP-92 = tested on: HOP-92
SR = tested on: SR
LOX IMVI = tested on: LOX IMVI

Measured: GI50

N#Cc1cc(NC(=O)c2ccccc2)c(=O)n2c1[nH]c1ccccc12
31 µM: HCT-15
inactive: RXF 631 46.9 µM | SF-539 21.5 µM | A549 24.5 µM | M14 27.3 µM | IGROV-1 24.5 µM | U-251 26.9 µM | SF-295 71 µM | OVCAR-3 28.2 µM | M19-MEL 30.1 µM | ACHN 29.9 µM | LXFL 529 33 µM | SK-MEL-5 12.7 µM | SNB-78 35 µM | RXF 393 13.6 µM | 786-0 37.2 µM | MOLT-4 29.6 µM | TK-10 22.2 µM | HT-29 48.5 µM | SN12C 29.1 µM | OVCAR-4 27 µM | HOP-18 7.45 µM | K562 31.7 µM | DMS-273 30.1 µM | NCI-H522 11 µM | OVCAR-8 38.3 µM | SW-620 39 µM | EKVX 36.3 µM | DLD-1 28.9 µM | HOP-62 24.5 µM | SK-MEL-28 21.6 µM | A498 22.7 µM | KM12 43.9 µM | HCT-116 21.4 µM | SK-MEL-2 32.1 µM | KM-20L2 32.7 µM | UACC-62 17.4 µM | UACC-257 33 µM | HCC 2998 28.8 µM | COLO 205 31.6 µM | CAKI-1 35.9 µM | HL-60 26.4 µM | Malme-3M 23.9 µM | SF-268 43.1 µM | SNB-19 23.4 µM | XF498 31.4 µM | NCI-H460 33 µM | SK-OV-3 28.8 µM | NCI-H23 20 µM | SNB-75 25.9 µM | CCRF-CEM 37.8 µM | DMS-114 23 µM | RPMI-8226 11.7 µM | UO-31 18.3 µM

Cc1ccc(NC(=O)/C(=N\NC(N)=S)C(C#N)c2ccccc2C)cc1C (stereo not given)
inactive: RXF 631 > 100 µM | SF-539 > 100 µM | A549 > 100 µM | M14 > 100 µM | IGROV-1 > 100 µM | U-251 > 100 µM | OVCAR-5 > 100 µM | SF-295 > 100 µM | OVCAR-3 > 100 µM | M19-MEL > 100 µM | ACHN > 100 µM | LXFL 529 > 100 µM | SK-MEL-5 > 100 µM | SNB-78 > 100 µM | 786-0 > 100 µM | MOLT-4 > 100 µM | TK-10 > 100 µM | HT-29 > 100 µM | SN12C > 100 µM | OVCAR-4 > 100 µM | HOP-18 > 100 µM | K562 > 100 µM | DMS-273 > 100 µM | NCI-H522 > 100 µM | OVCAR-8 > 100 µM | SW-620 > 100 µM | NCI-H226 > 100 µM | EKVX > 100 µM | DLD-1 > 100 µM | HOP-62 > 100 µM | HOP-92 > 100 µM | SK-MEL-28 > 100 µM | A498 > 100 µM | KM12 > 100 µM | HCT-116 > 100 µM | SK-MEL-2 > 100 µM | KM-20L2 > 100 µM | SR > 100 µM | UACC-62 > 100 µM | UACC-257 > 100 µM | HCC 2998 > 100 µM | COLO 205 > 100 µM | CAKI-1 > 100 µM | HL-60 > 100 µM | Malme-3M > 100 µM | SF-268 > 100 µM | SNB-19 > 100 µM | XF498 > 100 µM | NCI-H460 > 100 µM | SK-OV-3 > 100 µM | NCI-H23 > 100 µM | SNB-75 66.5 µM | CCRF-CEM > 100 µM | DMS-114 > 100 µM | RPMI-8226 > 100 µM | UO-31 > 100 µM
> 100 µM: HCT-15

CC1CC(=O)c2c(ccc3c2C(=O)c2cccc(O)c2C3=O)C1 (stereo not given)
9.14 µM: HCT-15
inactive: RXF 631 13.2 µM | SF-539 14.8 µM | A549 7.16 µM | M14 1.97 µM | IGROV-1 > 10 µM | U-251 11.4 µM | OVCAR-5 20.6 µM | SF-295 10.9 µM | OVCAR-3 3.46 µM | M19-MEL 1.41 µM | LXFL 529 4.31 µM | SK-MEL-5 2.31 µM | SNB-78 7.29 µM | 786-0 7 µM | MOLT-4 2.13 µM | TK-10 > 10 µM | HT-29 3.74 µM | OVCAR-4 12.4 µM | HOP-18 6.58 µM | K562 2.77 µM | LOX IMVI 4.47 µM | DMS-273 4.48 µM | NCI-H522 4.37 µM | OVCAR-8 2.56 µM | SW-620 4.25 µM | NCI-H226 14.4 µM | EKVX 14.6 µM | DLD-1 2.94 µM | HOP-62 > 10 µM | HOP-92 1.79 µM | SK-MEL-28 13.1 µM | A498 14 µM | KM12 12.7 µM | HCT-116 5.08 µM | SK-MEL-2 8.81 µM | SR 3.54 µM | UACC-62 8.53 µM | UACC-257 5.89 µM | HCC 2998 10.4 µM | COLO 205 5.75 µM | HL-60 2.77 µM | Malme-3M 6.93 µM | SF-268 10.4 µM | SNB-19 12.2 µM | XF498 12.6 µM | NCI-H460 4.62 µM | SK-OV-3 19.3 µM | NCI-H23 5.26 µM | SNB-75 10.4 µM | CCRF-CEM 1.95 µM | DMS-114 6.38 µM | RPMI-8226 3.34 µM | UO-31 11.5 µM
